Experimental data reported in patent US20240317714A1, “3-[(1H-PYRAZOL-R-YL)OXY]PYRAZIN-2-AMINE COMPOUNDS AS HPK1 INHIBITOR AND USE THEREOF” (BeiGene, Ltd., priority 2020, published 2024).

Columns and labels:
[1] = target: HPK1 kinase (aal-346. Life Technologies) (Homo sapiens (Human), UniProt Q92918); experiment: HPK Kinase Activity Assay at 1 mM ATP (TR-FRET); type: biochemical; settings: HPK1 kinase 40 nM, 0.5 μM STK1 substrate, read-out: Enzymatic activity IC50
[2] = tested on: pSLP76(S376) level in Jurkat cell line; experiment: Cellular pSLP76(S376) HTRF Assay; type: cell-based; settings: Homo sapiens, Jurkat, Jurkat cells, 2 h compound treatment, stimulated with 0.05 μg/mL anti-human CD3 (OKT3) for 30 min

Chain of HPK1 kinase (aal-346. Life Technologies) (Q92918 1-346): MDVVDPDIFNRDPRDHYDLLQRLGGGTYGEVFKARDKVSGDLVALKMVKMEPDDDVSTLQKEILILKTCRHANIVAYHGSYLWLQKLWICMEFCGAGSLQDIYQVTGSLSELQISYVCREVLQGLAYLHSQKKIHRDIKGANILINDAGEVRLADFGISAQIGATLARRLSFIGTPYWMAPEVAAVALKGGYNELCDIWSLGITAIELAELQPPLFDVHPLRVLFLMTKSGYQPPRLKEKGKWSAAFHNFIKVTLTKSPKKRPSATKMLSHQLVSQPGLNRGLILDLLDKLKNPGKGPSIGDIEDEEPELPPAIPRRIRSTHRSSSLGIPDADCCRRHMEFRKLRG

IC50 [1] [nM]	IC50 [2] [nM]	SMILES
30	81	Cc1cc(-c2cnc(N)c(Oc3cnn(C4CCN(C)CC4)c3)n2)cc(C)c1CNS(=O)(=O)C1CC1 [Example A32, N-(4-(5-amino-6-((1-(1-methylpiperidin-4-yl)-1H-pyrazol-4-yl)oxy)pyrazin-2-yl)-2,6-dimethylbenzyl)cyclopropanesulfonamide]
111	330	CNS(=O)(=O)c1cc(-c2cnc(N)c(Oc3cnn(C4CCN(C)CC4)c3)n2)cc(C(C)(C)C)c1 [Example A30, 3-(5-amino-6-((1-(1-methylpiperidin-4-yl)-1H-pyrazol-4-yl)oxy)pyrazin-2-yl)-5-(tert-butyl)-N-methylbenzenesulfonamide]
29	129	Cc1cc(-c2cnc(N)c(Oc3cnn(C4CCN(C)CC4)c3)n2)cc(C)c1C1=CCOCC1 [Example A75, 5-(4-(3,6-dihydro-2H-pyran-4-yl)-3,5-dimethylphenyl)-3-((1-(1-methylpiperidin-4-yl)-1H-pyrazol-4-yl)oxy)pyrazin-2-amine]
17	98	Cc1cc(-c2cnc(N)c(Oc3cnn(C4CCN(C)CC4)c3)n2)cc(C)c1CNC(=O)NC1CCCC1 [Example A37, 1-(4-(5-amino-6-((1-(1-methylpiperidin-4-yl)-1H-pyrazol-4-yl)oxy)pyrazin-2-yl)-2,6-dimethylbenzyl)-3-cyclopentylurea]
40	130	Cc1cc(-c2cnc(N)c(Oc3cnn(C4CCN(C)CC4)c3)n2)cc(C2(O)COC2)c1C1=CCOCC1 [Example A86, 3-(5-(5-amino-6-((1-(1-methylpiperidin-4-yl)-1H-pyrazol-4-yl)oxy)pyrazin-2-yl)-2-(3,6-dihydro-2H-pyran-4-yl)-3-methylphenyl)oxetan-3-ol]
70	97	Cc1cc(-c2cnc(N)c(Oc3cnn(C4CCN(C)CC4)c3)n2)cc(C2(NS(=O)(=O)c3ccccc3)CC2)c1 [Example A20, N-(1-(3-(5-amino-6-((1-(1-methylpiperidin-4-yl)-1H-pyrazol-4-yl)oxy)pyrazin-2-yl)-5-methylphenyl)cyclopropyl)benzenesulfonamide]
12	121	CNCc1cc(-c2cnc(N)c(Oc3cnn(C4CCN(C)CC4)c3)n2)cc(N2CCC[C@H]2C)n1 [Example B2, (R)-5-(2-((methylamino)methyl)-6-(2-methylpyrrolidin-1-yl)pyridin-4-yl)-3-((1-(1-methylpiperidin-4-yl)-1H-pyrazol-4-yl)oxy)pyrazin-2-amine]
8	30	CNS(=O)(=O)c1cc(-c2cnc(N)c(Oc3cnn(C4CCN(C)CC4)c3)n2)cc(C)c1C [Example A8, 5-(5-amino-6-((1-(1-methylpiperidin-4-yl)-1H-pyrazol-4-yl)oxy)pyrazin-2-yl)-N,2,3-trimethylbenzemesulfonamide]
15	119	CC1OCCC1(O)c1cc(-c2cnc(N)c(Oc3cnn(C4CCN(C)CC4)c3)n2)cc(N2CCOC[C@H]2C)c1 (stereo partly drawn) [Example A94, 3-(3-(5-amino-6-((1-(1-methylpiperidin-4-yl)-1H-pyrazol-4-yl)oxy)pyrazin-2-yl)-5-((R)-3-methylmorpholino)phenyl)-2-methyltetrahydrofuran-3-ol]
12	71	CN1CCC(n2cc(Oc3nc(-c4cc(C5CCOCC5)cc(C5(O)COC5)c4)cnc3N)cn2)CC1 [Example A79, 3-(3-(5-amino-6-((1-(1-methylpiperidin-4-yl)-1H-pyrazol-4-yl)oxy)pyrazin-2-yl)-5-(tetrahydro-2H-pyran-4-yl)phenyl)oxetan-3-ol]
30	154	Cc1cc(-c2cnc(N)c(Oc3cnn(C4CCN(C)CC4)c3)n2)cc([C@]2(O)CCOC2)c1N1CCOCC1 [Example A97B, (R)-3-(5-(5-amino-6-((1-(1-methylpiperidin-4-yl)-1H-pyrazol-4-yl)oxy)pyrazin-2-yl)-3-methyl-2-morpholinophenyl)tetrahydrofuran-3-ol]
44	46	Cc1cc(-c2cnc(N)c(Oc3cnn(C4CCN(C)CC4)c3)n2)cc(C)c1CNS(C)(=O)=O [Example A19, N-(4-(5-amino-6-((1-(1-methylpiperidin-4-yl)-1H-pyrazol-4-yl)oxy)pyrazin-2-yl)-2,6-dimethylbenzyl)methanesulfonamide]
34	77	Cc1cc(-c2cnc(N)c(Oc3cnn(C4CCN(C)CC4)c3)n2)cc(C)c1CNS(=O)(=O)C1CCOCC1 [Example A31, N-(4-(5-amino-6-((1-(1-methylpiperidin-4-yl)-1H-pyrazol-4-yl)oxy)pyrazin-2-yl)-2,6-dimethylbenzyl)tetrahydro-2H-pyran-4-sulfonamide]
11	59	Cc1cc(-c2cnc(N)c(Oc3cnn(C4CCN(C)CC4)c3)n2)cc(C2(O)COC2)c1C [Example A73, 3-(5-(5-amino-6-(1-(1-methylpiperidin-4-yl)-1H-pyrazol-4-yloxy)pyrazin-2-yl)-2,3-dimethylphenyl)oxetan-3-ol]
36	132	Cc1cc(-c2cnc(N)c(Oc3cnn(C4CCN(C)CC4)c3)n2)cc(C)c1N1CCOCC1 [Example A66, 5-(3,5-dimethyl-4-morpholinophenyl)-3-((1-(1-methylpiperidin-4-yl)-1H-pyrazol-4-yl)oxy)pyrazin-2-amine]
29	69	Cc1cc(-c2cnc(N)c(Oc3cnn(C4CCN(C)CC4)c3)n2)cc(C2(O)CCOCC2)c1 [Example A58, 4-(3-(5-amino-6-((1-(1-methylpiperidin-4-yl)-1H-pyrazol-4-yl)oxy)pyrazin-2-yl)-5-methylphenyl)tetrahydro-2H-pyran-4-ol]
10	41	Cc1cc(-c2cnc(N)c(Oc3cnn(C4CCN(C)CC4)c3)n2)cc([C@]2(O)CCOC2)c1 [Example A74B, (R)-3-(3-(5-amino-6-((1-(1-methylpiperidin-4-yl)-1H-pyrazol-4-yl)oxy)pyrazin-2-yl)-5-methylphenyl)tetrahydrofuran-3-ol]
104	175	CNS(=O)(=O)c1cc(C)cc(-c2cnc(N)c(Oc3cnn(C4CCN(C5CC5)CC4)c3)n2)c1 [Example A24, 3-(5-amino-6-((1-(1-cyclopropylpiperidin-4-yl)-1H-pyrazol-4-yl)oxy)pyrazin-2-yl)-N,5-dimethylbenzenesulfonamide]
10	33	Cc1cc(-c2cnc(N)c(Oc3cnn(C4CCN(C)CC4)c3)n2)cc(C2(O)COC2)c1 [Example A54, 3-(3-(5-amino-6-((1-(1-methylpiperidin-4-yl)-1H-pyrazol-4-yl)oxy)pyrazin-2-yl)-5-methylphenyl)oxetan-3-ol]
48	79	Cc1cc(-c2cnc(N)c(Oc3cnn(C4CCN(C)CC4)c3)n2)cc(C)c1CNS(=O)(=O)N(C)C [Example A62, 5-(4-[[(dimethylsulfamoyl)amino]methyl]-3,5-dimethylphenyl)-3-[[1-(1-methylpiperidin-4-yl)pyrazol-4-yl]oxy]pyrazin-2-amine]
6	26	CNS(=O)(=O)c1cc(-c2cnc(N)c(Oc3cnn(C4CCN(C)CC4)c3)n2)cc(N2CCC[C@H]2C)c1 [Example A43, (R)-3-(5-amino-6-((1-(1-methylpiperidin-4-yl)-1H-pyrazol-4-yl)oxy)pyrazin-2-yl)-N-methyl-5-(2-methylpyrrolidin-1-yl)benzenesulfonamide]
